Data taken from patent US20210309631A1, “SALT OF CYCLOHEXANE DERIVATIVE” (priority 2018, published 2021).
Like-named read-outs stand apart in the source and are kept apart here.

Legend:
[1] = Plasma pharmacokinetics in SD rats after single intragastric administration (Example 7); format: in vivo; conditions: intragastric 1 mg/kg, Mean ± SD, non-compartmental model, listed as free base
Method: The in vivo absorption process and characteristics of the free base and four salts thereof (sulfate, hydrochloride salt, phosphate, maleate) of compound (I) in rats were studied. The pharmacokinetics of a single intragastric administration of 1 mg/kg of a compound of Formula I and four salts thereof (calculated by free base concentration in salt form) were studied in SD rats.
SD rats were given a single intragastric administration of 1 mg/kg free base of Example 1 and four salts thereof (including hydrochloride salt from Example 2, sulfate from Example 3, phosphate from Example 4 and maleate from Example 5). There were 4 male rats in each group. The concentration of the compound of Formula I in plasma was determined, and the pharmacokinetic parameters were calculated according to the concentration-time curve.

[2] = solubility in water; format: physicochemical; conditions: listed as crystal Form A of the free base
[3] = In vivo individual difference analysis: individual plasma concentration versus time in rats (Example 8); set-up: species or system SD rats; conditions: intragastric 1 mg/kg; for Plasma Concentrations of Compound of Formula I: listed as Compound of Formula I; for concentration at 0 h: 0 h after administration
Method: Compound of Formula I and salts thereof (sulfate, hydrochloride salt, phosphate, maleate), supplied by Shanghai Jingxin Biopharmaceutical Co., Ltd. • Strain: SD rats; Gender: male; Body weight: about 250 grams; Source: shanghai Jiesijie Experimental Animal Co., Ltd Route: single intragastric administration; Capacity: measured in 10 mL/kg body weight Preparation: weighing appropriate amount of the free base or salt of the compound of Formula I, adding a small amount of 0.5% CMC-Na to grind, adding 0.5% CMC-Na to the volume. The concentration is measured as the base. 20 SD rats were divided into 5 groups with 4 rats in each group, fasted for 12 h and drank freely before administration. […] The blood was anticoagulated with 1% heparin, the plasma was separated by 8000 rpm centrifugation for 4 min and stored at -40° C. for testing. LC-MS/MS Method. Pharmacokinetic parameters after administration in rats were calculated using a non-compartmental model of DAS 2.0 software.

[4] = Hygroscopicity (DVS) experiment, 25° C./80% relative humidity; format: physicochemical; conditions: DVS, 25° C./80% relative humidity; listed as Example 1 free base
Method: Dynamic vapor sorption curves were collected on a DVS Intrinsic by SMS (Surface Measurement Systems).
20 mg sample of the crystal forms of the Examples and Comparative Examples are placed in the environment of 25° C./80% relative humidity for a dynamic vapor sorption (DVS) test, and the test results […] are shown in Table 5.

CN(C)C(=O)N[C@H]1CC[C@H](CCN2CCN(c3cccc4ccsc34)CC2)CC1 [Example 1, N′-[trans-4-[2-[7-(benzo[b]thiophene)-7-piperazinyl]ethyl]cyclohexyl]-N,N-dimethylurea]
MRT0-∞ [1]: 3.63 ± 0.306 h | Tmax [1]: 0.583 ± 0.289 h | t1/2 [1]: 2.78 ± 0.463 h | solubility in water [2]: about 0.031 mg/ml | Plasma Concentrations of Compound of Formula I ([3]; 5 min after administration, Mean ± SD): 3.40 ± 5.74 ng/mL | Plasma Concentrations of Compound of Formula I ([3]; 5 min after administration, rat 1♂): 0.419 ng/mL | Plasma Concentrations of Compound of Formula I ([3]; 5 min after administration, rat 2♂): 0.624 ng/mL | Plasma Concentrations of Compound of Formula I ([3]; 5 min after administration, rat 3♂): 12.0 ng/mL | Plasma Concentrations of Compound of Formula I ([3]; 5 min after administration, rat 4♂): 0.543 ng/mL | Plasma Concentrations of Compound of Formula I ([3]; 0.167 h after administration, rat 1♂): 6.35 ng/mL | Plasma Concentrations of Compound of Formula I ([3]; 0.167 h after administration, rat 3♂): 25.8 ng/mL | Plasma Concentrations of Compound of Formula I ([3]; 0.333 h after administration, rat 1♂): 26.8 ng/mL | Plasma Concentrations of Compound of Formula I ([3]; 0.333 h after administration, rat 2♂): 33.0 ng/mL | Plasma Concentrations of Compound of Formula I ([3]; 0.333 h after administration, rat 3♂): 51.8 ng/mL | Plasma Concentrations of Compound of Formula I ([3]; 0.5 h after administration, rat 2♂): 37.2 ng/mL | Plasma Concentrations of Compound of Formula I ([3]; 0.5 h after administration, rat 3♂): 51.6 ng/mL | Plasma Concentrations of Compound of Formula I ([3]; 1 h after administration, rat 3♂): 45.6 ng/mL | Plasma Concentrations of Compound of Formula I ([3]; 2 h after administration, rat 3♂): 23.9 ng/mL | Plasma Concentrations of Compound of Formula I ([3]; 2 h after administration, rat 4♂): 40.3 ng/mL | Plasma Concentrations of Compound of Formula I ([3]; 4 h after administration, rat 2♂): 6.30 ng/mL | Plasma Concentrations of Compound of Formula I ([3]; 4 h after administration, rat 3♂): 7.95 ng/mL | Plasma Concentrations of Compound of Formula I ([3]; 4 h after administration, rat 4♂): 16.0 ng/mL | Plasma Concentrations of Compound of Formula I ([3]; 6 h after administration, rat 2♂): 1.94 ng/mL | Plasma Concentrations of Compound of Formula I ([3]; 6 h after administration, rat 4♂): 8.91 ng/mL | Plasma Concentrations of Compound of Formula I ([3]; 9 h after administration, rat 2♂): 0.95 ng/mL | Plasma Concentrations of Compound of Formula I ([3]; 9 h after administration, rat 4♂): 3.30 ng/mL | Plasma Concentrations of Compound of Formula I ([3]; 12 h after administration, rat 1♂): 0.372 ng/mL | Plasma Concentrations of Compound of Formula I ([3]; 12 h after administration, rat 2♂): 0.578 ng/mL | Plasma Concentrations of Compound of Formula I ([3]; 12 h after administration, rat 3♂): 0.682 ng/mL | Plasma Concentrations of Compound of Formula I ([3]; 12 h after administration, rat 4♂): 1.66 ng/mL | Plasma Concentrations of Compound of Formula I ([3]; 24 h after administration, Mean ± SD): 0.497 ± 0.273 ng/mL | Plasma Concentrations of Compound of Formula I ([3]; 24 h after administration, rat 1♂): 0.487 ng/mL | Plasma Concentrations of Compound of Formula I ([3]; 24 h after administration, rat 2♂): 0.308 ng/mL | Plasma Concentrations of Compound of Formula I ([3]; 24 h after administration, rat 3♂): 0.886 ng/mL | Plasma Concentrations of Compound of Formula I ([3]; 24 h after administration, rat 4♂): 0.306 ng/mL | concentration at 0 h ([3]; male, SD, rat, plasma, oral, 1 mg/kg, Mean ± SD, read-out: Plasma Concentrations of Compound of Formula I): 0 ng/mL | concentration at 0 h ([3]; male, SD, rat, plasma, oral, 1 mg/kg, rat 1♂, read-out: Plasma Concentrations of Compound of Formula I): 0 ng/mL | concentration at 0 h ([3]; male, SD, rat, plasma, oral, 1 mg/kg, rat 2♂, read-out: Plasma Concentrations of Compound of Formula I): 0 ng/mL | concentration at 0 h ([3]; male, SD, rat, plasma, oral, 1 mg/kg, rat 3♂, read-out: Plasma Concentrations of Compound of Formula I): 0 ng/mL | concentration at 0 h ([3]; male, SD, rat, plasma, oral, 1 mg/kg, rat 4♂, read-out: Plasma Concentrations of Compound of Formula I): 0 ng/mL | concentration at 0.167 h ([3]; male, SD, rat, plasma, oral, 1 mg/kg, 0.167 h after administration, Mean ± SD, read-out: Plasma Concentrations of Compound of Formula I): 14.9 ± 8.3 ng/mL | concentration at 0.167 h ([3]; male, SD, rat, plasma, oral, 1 mg/kg, 0.167 h after administration, rat 2♂, read-out: Plasma Concentrations of Compound of Formula I): 11.3 ng/mL | concentration at 0.167 h ([3]; male, SD, rat, plasma, oral, 1 mg/kg, 0.167 h after administration, rat 4♂, read-out: Plasma Concentrations of Compound of Formula I): 16.3 ng/mL | concentration at 0.333 h ([3]; male, SD, rat, plasma, oral, 1 mg/kg, 0.333 h after administration, Mean ± SD, read-out: Plasma Concentrations of Compound of Formula I): 42.2 ± 14.5 ng/mL | concentration at 0.333 h ([3]; male, SD, rat, plasma, oral, 1 mg/kg, 0.333 h after administration, rat 4♂, read-out: Plasma Concentrations of Compound of Formula I): 57 ng/mL | concentration at 0.5 h ([3]; male, SD, rat, plasma, oral, 1 mg/kg, 0.5 h after administration, Mean ± SD, read-out: Plasma Concentrations of Compound of Formula I): 46.4 ± 13.7 ng/mL | concentration at 0.5 h ([3]; male, SD, rat, plasma, oral, 1 mg/kg, 0.5 h after administration, rat 1♂, read-out: Plasma Concentrations of Compound of Formula I): 33.6 ng/mL | concentration at 0.5 h ([3]; male, SD, rat, plasma, oral, 1 mg/kg, 0.5 h after administration, rat 4♂, read-out: Plasma Concentrations of Compound of Formula I): 63.3 ng/mL | concentration at 1 h ([3]; male, SD, rat, plasma, oral, 1 mg/kg, 1 h after administration, Mean ± SD, read-out: Plasma Concentrations of Compound of Formula I): 43.7 ± 14.8 ng/mL | concentration at 1 h ([3]; male, SD, rat, plasma, oral, 1 mg/kg, 1 h after administration, rat 1♂, read-out: Plasma Concentrations of Compound of Formula I): 29.4 ng/mL | concentration at 1 h ([3]; male, SD, rat, plasma, oral, 1 mg/kg, 1 h after administration, rat 2♂, read-out: Plasma Concentrations of Compound of Formula I): 36.3 ng/mL | concentration at 1 h ([3]; male, SD, rat, plasma, oral, 1 mg/kg, 1 h after administration, rat 4♂, read-out: Plasma Concentrations of Compound of Formula I): 63.6 ng/mL | concentration at 2 h ([3]; male, SD, rat, plasma, oral, 1 mg/kg, 2 h after administration, Mean ± SD, read-out: Plasma Concentrations of Compound of Formula I): 25.1 ± 10.6 ng/mL | concentration at 2 h ([3]; male, SD, rat, plasma, oral, 1 mg/kg, 2 h after administration, rat 1♂, read-out: Plasma Concentrations of Compound of Formula I): 16.8 ng/mL | concentration at 2 h ([3]; male, SD, rat, plasma, oral, 1 mg/kg, 2 h after administration, rat 2♂, read-out: Plasma Concentrations of Compound of Formula I): 19.2 ng/mL | concentration at 4 h ([3]; male, SD, rat, plasma, oral, 1 mg/kg, 4 h after administration, Mean ± SD, read-out: Plasma Concentrations of Compound of Formula I): 8.91 ± 4.85 ng/mL | concentration at 4 h ([3]; male, SD, rat, plasma, oral, 1 mg/kg, 4 h after administration, rat 1♂, read-out: Plasma Concentrations of Compound of Formula I): 5.38 ng/mL | concentration at 6 h ([3]; male, SD, rat, plasma, oral, 1 mg/kg, 6 h after administration, Mean ± SD, read-out: Plasma Concentrations of Compound of Formula I): 3.99 ± 3.32 ng/mL | concentration at 6 h ([3]; male, SD, rat, plasma, oral, 1 mg/kg, 6 h after administration, rat 1♂, read-out: Plasma Concentrations of Compound of Formula I): 2.03 ng/mL | concentration at 6 h ([3]; male, SD, rat, plasma, oral, 1 mg/kg, 6 h after administration, rat 3♂, read-out: Plasma Concentrations of Compound of Formula I): 3.06 ng/mL | concentration at 9 h ([3]; male, SD, rat, plasma, oral, 1 mg/kg, 9 h after administration, Mean ± SD, read-out: Plasma Concentrations of Compound of Formula I): 1.65 ± 1.13 ng/mL | concentration at 9 h ([3]; male, SD, rat, plasma, oral, 1 mg/kg, 9 h after administration, rat 1♂, read-out: Plasma Concentrations of Compound of Formula I): 0.876 ng/mL | concentration at 9 h ([3]; male, SD, rat, plasma, oral, 1 mg/kg, 9 h after administration, rat 3♂, read-out: Plasma Concentrations of Compound of Formula I): 1.47 ng/mL | concentration at 12 h ([3]; male, SD, rat, plasma, oral, 1 mg/kg, 12 h after administration, Mean ± SD, read-out: Plasma Concentrations of Compound of Formula I): 0.823 ± 0.573 ng/mL | Hygroscopicity [4]: Almost no | Vapor sorption [4]: 0.16%
